Laboratory results as given in patent US20230233483A1, “COMPOUND AND METHOD FOR THE TREATMENT OF CORONAVIRUSES” (Apteeus, priority 2020, published 2023).
Entries after “also recorded” stand apart in the source; their conditions may differ.

Key:
hSARS-CoV2 [1] = assay: Cytopathic effect and cell growth in Vero81 cells infected with hSARS-CoV2; assay type: cell-based, SARS-CoV-2; conditions: MOI 0.01, 72 hours
Experimental: Vero cells [ATCC® CCL-81™, ECACC, Sigma-Aldrich, France, hereafter “Vero81” cells] were cultured in Dulbecco’s modified Eagle medium (DMEM) supplemented with 10% fetal bovine serum (FBS) and GlutaMAX™ in a humidified atmosphere of 5% CO2 at 37° C.
Tested compound: solutions of the clofoctol were prepared in DMSO at concentrations required to achieve the desired concentrations in the experiment. Solutions were dispensed onto the living cells. The maximum concentration of DMSO was 0.15%.
Cell infection: cells were infected after addition of clofoctol at various concentrations or control solvents. The multiple of infection was 0.01. […]
The effect of clofoctol on Vero81 cells infected with hSARS-CoV2 was assessed by adding a range of concentrations of clofoctol, following 1:3 dilutions, prior to infection with hSARS-CoV2 at MOI 0.01 (Multiple Of Infection (MOI) 0.01 means that the amount of virus used is 0.01 per 1 cell) for 72 hours. […]
(§1) The results were obtained by analyzing the percentage of PI-positive nuclei expressed as the percentage of CPE relative to a scale defined by positive (0% infected cells) and negative (100% infected cells) controls. […]
The effect of clofoctol on Vero81 cells infected with hSARS-CoV2 was assessed by adding a range of concentrations of clofoctol, following 1:3 dilutions, prior to infection with hSARS-CoV2 at MOI 0.01 for 72 hours. […]

hSARS-CoV2 [2] = assay: Cytopathic effect and cell growth in TMPRSS2-transduced Vero81 cells infected with hSARS-CoV2; assay type: cell-based, SARS-CoV-2; conditions: MOI 0.01, 72 hours
Experimental: Vero-81 cells were transduced with a lentivirus expressing TMPRSS2. TMPRSS2 was cloned into pTRIP vector, lentivectors were produced by transfection of HEK293T cells with pTRIP-TMPRSS2, phCMV-VSVG and HIV gag-pol with Turbofect™ (ThermoFischer) according to the manufacturer’s instruction. Supernatants containing lentiviral vectors were used to transduce cells. Then cells were used in experiments 72 h after the transduction.
Tested compound: solutions of the clofoctol were prepared in DMSO at concentrations required to achieve the desired concentrations in the experiment. Solutions were dispensed onto the living cells. The maximum concentration of DMSO was 0.15%. […]
The effect of clofoctol on TMPRSS2-transduced Vero81 cells infected with hSARS-CoV2 was assessed by adding a range of concentrations of clofoctol, following 1:3 dilutions, prior to infection with hSARS-CoV2 at MOI 0.01 for 72 hours. […]
as §1
The results were obtained by analyzing the number of living cells expressed as the percentage of cell growth improvement relative to a scale defined by normal cell growth (not infected controls) and no cell growth (infected controls). […]

hSARS-CoV2 [3] = assay: Viral genomic replication (RT-qPCR) in Vero81 and TMPRSS2-transduced Vero81 cells; assay type: cell-based, SARS-CoV-2
Experimental: Cell culture: Vero81 cells and Vero-81 cells transduced with TMPRSS2 were cultured in Dulbecco’s modified Eagle medium (DMEM) supplemented with 10% fetal bovine serum (FBS) and GlutaMAX™ in a humidified atmosphere of 5% CO2 at 37° C.
Tested compound: solutions of clofoctol were prepared in DMSO at concentrations required to achieve the desired concentrations in the experiment. Solutions were dispensed onto the living cells. The maximum concentration of DMSO was 0.15%.
Cell infection: cells were infected after addition of clofoctol at various concentrations or control solvents. The multiple of infection was 0.25. […]
RNA dosing: after 6 hours of incubation, total cellular RNA was extracted by using the Nucleospin RNA kit (Macherey-Nagel) as recommended by the manufacturer and SARS-CoV-2 genome were measured by quantitative RT-PCR. […] Primers and probe (WHO protocol) targeting the open reading frame for the E gene were used. […]
The effect of clofoctol on Vero81 and TMPRSS2-transduced Vero81 cells infected with hSARS-CoV2 was assessed by adding a range of concentrations of clofoctol, following 1:2,5 dilutions, prior to infection with hSARS-CoV2 at MOI 0.25 for 6 hours. […]
Results were obtained by dosing viral RNA and the viral load was expressed as the ratio of the viral RNA on the total RNA (RNAt) of the sample. […]

SARS-CoV-2 [4] = assay type: cell-based; conditions: Vero-81 and Vero-81-TMPRSS2 cells, MOI 0.25, treatment after 1 h infection, 16 h
SARS-CoV-2 [5] = assay type: cell-based; conditions: Calu-3 cells, MOI 0.25, 24 h
[6] = Pharmacokinetics in C57BL/6J mice, plasma and lung concentration; assay type: in vivo; conditions: i.p. 62.5 mg/kg single dose or twice daily for two days
Experimental: Clofoctol diluted in 1.75% final Kolliphor® RH40 (07076, Sigma) and 1.4% final ethanol in a sodium chloride solution was used for intraperitoneal injection. Female 8-10 week-old C57BL/6J mice were treated i.p. with a single dose of clofoctol (62.5 mg/kg) and were sacrificed at different time points thereafter (FIG. 9, left panel). In a separate experiment, the mice were treated i.p. twice daily with a dose of clofoctol (62.5 mg/kg) for two days, and the mice were sacrificed 1 h after the last injection (FIG. 9, right panel). The concentration of clofoctol in the plasma and lung of treated mice was measured as follows: plasma samples and lung tissues were collected and treated with absolute ethanol, in a ratio of 1 to 10 and 1 to 50, respectively. Lung tissues were homogenized with a mechanical lysis system (Tissue Lyzer II). Supernatants were obtained by centrifugation before injection in LC-MS/MS. Samples were analysed using UPLC system Acquity I Class (Waters), combined with a triple quadrupole mass spectrometer Xevo TQD (Waters). The column, placed at 40° C., was an Acquity BEH C8 50*2.1 mm, 1.7 µm column (Waters) and the following mobile phases were used: 5 mM ammonium formate pH 3.75 in water, as solvent (A) and 5 mM ammonium formate pH 3.75 in acetonitrile as solvent (B). […]

SARS-CoV-2 [7] = assay type: in vivo, K18-human ACE2 expressing C57BL/6 mice; conditions: i.p. 62.5 mg/kg 1 h and 8 h after inoculation and twice daily at day 1; day 2 post-infection
HCoV-229E-Rluc = assay type: cell-based; conditions: Huh-7 cells, 7h post-infection
hSARS-CoV-2 = assay: Infected human bronchial epithelia (MucilAir), secreted virus and viral RNA; assay type: cell-based, SARS-CoV-2; conditions: apical administration, MOI 0.2, 72 hours
Experimental: Human bronchial epithelia (MucilAir™, available from the company Epithelix) were treated through apical administration of clofoctol. The epithelia were first washed with Mucilair® culture medium containing different concentrations of clofoctol prior to infection by hSARS-CoV-2 at MOI 0.2 for 1 hour, still in the presence of clofoctol. Then, the inoculum was removed and epithelia were washed with PBS before addition at the apical pole of 25 µl of Mucilair® culture medium containing different concentrations of clofoctol. After 72 hours of incubation at 37° C., 200 µl of MucilAir™ culture medium was added at the apical pole of the epithelia and harvested, after incubating for 5 minutes. These supernatants were used to quantify the amount of secreted virus as assessed by TCID50. The results are shown in FIG. 15 in which the dotted line represents the limit of detection […]. In addition, total RNAs were extracted by using the Nucleospin RNA kit (Macherey-Nagel) prior to genome quantification by RT-qPCR. The data in both FIGS. 15 and 16 represent the average and standard-deviation of technical triplicates (n=3).

[8] = read-out: Cmax in human lung tissue; patients undergoing pulmonary resection or pneumonectomy, clofoctol administered before or during surgery; cited from earlier work

Compound: CC(C)(C)CC(C)(C)c1ccc(O)c(Cc2ccc(Cl)cc2Cl)c1 [clofoctol, 2-(2,4-Dichlorobenzyl)-4-(1,1,3,3-tetramethylbutyl)phenol]
- IC95, concentration reducing 95% of the CPE (percentage of PI-positive nuclei) (hSARS-CoV2 [1]): 9.2 µM
- EC95, concentration at which 95% of maximum response is observed (cell growth improvement) (hSARS-CoV2 [1]; estimated): ~21 µM
- IC95 of the CPE (percentage of PI-positive nuclei) (hSARS-CoV2 [2]): 8.7 µM
- EC95 (cell growth improvement) (hSARS-CoV2 [2]; estimated): ~25 µM
- IC95 of viral load (ratio of viral RNA on total RNA) (hSARS-CoV2 [3]; Vero81 and TMPRSS2-transduced Vero81 cells, MOI 0.25, 6 hours): 11 µM
- Genomic replication of SARS-CoV-2 (viral RNA by RT-qPCR, normalized to total RNA) (hSARS-CoV2 [3]; Vero-81 and Vero-81-TMPRSS2 cells, MOI 0.25, 6 h, increasing concentrations): inhibits the replication of hSARS-CoV2 in infected cells; also recorded: inhibits the genomic replication of SARS-CoV-2
- Secreted infectious virus (TCID50) in supernatants (SARS-CoV-2 [4]): inhibits the secretion of hSARS-CoV-2 by infected cells; also recorded: SARS-CoV-2 load decreases as the concentration of clofoctol increases
- SARS-CoV-2 replication (viral RNA by RT-qPCR) (SARS-CoV-2 [5]): inhibits SARS-CoV-2 replication in Calu-3 cells
- Distribution in lungs (concentration in plasma and lung) [6]: distributed in lungs at very significant levels
- SARS-CoV-2 infection in mice (lung viral load by titration and RT-qPCR) (SARS-CoV-2 [7]): significantly reduces SARS-CoV-2 infection in mice
- Activity against HCoV-229E (luciferase activity, percentage of control) (HCoV-229E-Rluc): active against HCoV-229E
- Factor of reduction of virus titer in the mucus of human bronchial epithelium (TCID50) (hSARS-CoV-2; 30 µM): more than 100
- Viral RNA quantitation (RT-qPCR) in human bronchial epithelia (hSARS-CoV-2; not normalized): decrease of viral RNA quantitation
- Cmax [8]: ~250 µM
